From PubChem BioAssay AID248 (DTP/NCI, 2004)
Values joined by “and” are separate entries in the source; they are usually repeats but may differ in a detail not shown here. Equal values may be shown once. Inconclusive results and toxic doses are left out. No stated cut-off is given here; in the data, active means T/C of 150% or more; inactive means T/C below 125%.

Tested on: L1210 leukemia ip in BDF1 mice, survival T/C
Experiment: NCI In Vivo Anticancer Drug Screen. Data for tumor model L1210 Leukemia (intraperitoneal) in B6D2F1 (BDF1) mice
Settings: endpoint: mean survival time, higher = longer survival
Procedure, shortened: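 Tumor cells were implanted, animals were treated, and survival was followed. The result divides the treated measurement by the vehicle-control measurement.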

[1] = dose: 100.0 mg/kg/injection, schedule: Q04DX002 (ip), vehicle: saline with Tween-80
[2] = dose: 100.0 mg/kg/injection, schedule: Q04DX003 (ip), vehicle: saline with Tween-80
[3] = dose: 200.0 mg/kg/injection, schedule: Q04DX002 (ip), vehicle: saline with Tween-80
[4] = dose: 200.0 mg/kg/injection, schedule: Q04DX003 (ip), vehicle: saline with Tween-80
[5] = dose: 400.0 mg/kg/injection, schedule: Q04DX003 (ip), vehicle: saline with Tween-80
[6] = dose: 100.0 mg/kg/injection, schedule: Q04DX003 (ip), vehicle: saline
[7] = dose: 400.0 mg/kg/injection, schedule: Q04DX003 (ip), vehicle: saline
[8] = dose: 50.0 mg/kg/injection, schedule: Q01DX001 (ip), vehicle: carboxymethylcellulose (CMC)
[9] = dose: 100.0 mg/kg/injection, schedule: Q01DX001 (ip), vehicle: carboxymethylcellulose (CMC)
[10] = dose: 200.0 mg/kg/injection, schedule: Q04DX003 (ip), vehicle: saline
[11] = dose: 100.0 mg/kg/injection, schedule: Q04DX002 (ip), vehicle: Klucel (hydroxypropylcellulose) (HPC)
[12] = dose: 200.0 mg/kg/injection, schedule: Q04DX002 (ip), vehicle: Klucel (hydroxypropylcellulose) (HPC)
[13] = dose: 400.0 mg/kg/injection, schedule: Q04DX002 (ip), vehicle: Klucel (hydroxypropylcellulose) (HPC)
[14] = dose: 200.0 mg/kg/injection, schedule: Q01DX001 (ip), vehicle: carboxymethylcellulose (CMC)
[15] = dose: 400.0 mg/kg/injection, schedule: Q01DX001 (ip), vehicle: carboxymethylcellulose (CMC)
[16] = dose: 100.0 mg/kg/injection, schedule: Q01DX009 (ip), vehicle: Klucel (hydroxypropylcellulose) (HPC)
[17] = dose: 200.0 mg/kg/injection, schedule: Q01DX009 (ip), vehicle: Klucel (hydroxypropylcellulose) (HPC)
[18] = dose: 200.0 mg/kg/injection, schedule: Q04DX003 (ip), vehicle: Klucel (hydroxypropylcellulose) (HPC)
[19] = dose: 400.0 mg/kg/injection, schedule: Q01DX009 (ip), vehicle: Klucel (hydroxypropylcellulose) (HPC)
[20] = dose: 400.0 mg/kg/injection, schedule: Q04DX003 (ip), vehicle: Klucel (hydroxypropylcellulose) (HPC)
[21] = dose: 100.0 mg/kg/injection, schedule: Q04DX003 (ip), vehicle: Klucel (hydroxypropylcellulose) (HPC)

Measured: T/C

C/C=C/[N+]([O-])=NC(C)CCCCCC (stereo unspecified)
inactive: dose: 100.0 mg/kg/injection, schedule: Q04DX002 (ip), vehicle: saline 105 % of control | dose: 200.0 mg/kg/injection, schedule: Q04DX002 (ip), vehicle: saline 97 % of control | dose: 400.0 mg/kg/injection, schedule: Q04DX002 (ip), vehicle: saline 94 % of control

O=C(NC(=S)Nc1ccc(O)cc1)c1cccc([N+](=O)[O-])c1
inactive: dose: 100.0 mg/kg/injection, schedule: Q01DX001 (ip), vehicle: saline with Tween-80 87 % of control | dose: 100.0 mg/kg/injection, schedule: Q01DX009 (ip), vehicle: saline with Tween-80 99 % of control and 103 % of control | [1] 101 % of control | [2] 94 % of control | dose: 200.0 mg/kg/injection, schedule: Q01DX001 (ip), vehicle: saline with Tween-80 91 % of control | dose: 200.0 mg/kg/injection, schedule: Q01DX009 (ip), vehicle: saline with Tween-80 92 % of control and 100 % of control | [3] 97 % of control | [4] 96 % of control | dose: 400.0 mg/kg/injection, schedule: Q01DX001 (ip), vehicle: saline with Tween-80 101 % of control | dose: 400.0 mg/kg/injection, schedule: Q01DX009 (ip), vehicle: saline with Tween-80 92 % of control and 100 % of control | dose: 400.0 mg/kg/injection, schedule: Q04DX002 (ip), vehicle: saline with Tween-80 90 % of control | [5] 95 % of control

Cc1ccc(N2C(=O)CC(Sc3ccccc3N)C2=O)cc1 (stereo unspecified)
inactive: dose: 100.0 mg/kg/injection, schedule: Q01DX009 (ip), vehicle: other 114 % of control | [6] 86 % of control | dose: 200.0 mg/kg/injection, schedule: Q01DX009 (ip), vehicle: other 110 % of control | dose: 400.0 mg/kg/injection, schedule: Q01DX009 (ip), vehicle: other 93 % of control | [7] 86 % of control

Nc1ccc(Cc2ccncc2)cc1
inactive: dose: 25.0 mg/kg/injection, schedule: Q01DX001 (ip), vehicle: carboxymethylcellulose (CMC) 105 % of control | dose: 25.0 mg/kg/injection, schedule: Q01DX009 (ip), vehicle: carboxymethylcellulose (CMC) 102 % of control and 92 % of control | dose: 25.0 mg/kg/injection, schedule: Q04DX002 (ip), vehicle: carboxymethylcellulose (CMC) 94 % of control | dose: 25.0 mg/kg/injection, schedule: Q04DX003 (ip), vehicle: carboxymethylcellulose (CMC) 97 % of control | [8] 102 % of control | dose: 50.0 mg/kg/injection, schedule: Q01DX009 (ip), vehicle: carboxymethylcellulose (CMC) 95 % of control and 98 % of control | dose: 50.0 mg/kg/injection, schedule: Q04DX002 (ip), vehicle: carboxymethylcellulose (CMC) 93 % of control and 103 % of control | dose: 50.0 mg/kg/injection, schedule: Q04DX003 (ip), vehicle: carboxymethylcellulose (CMC) 100 % of control | [9] 103 % of control | dose: 100.0 mg/kg/injection, schedule: Q01DX009 (ip), vehicle: carboxymethylcellulose (CMC) 94 % of control and 103 % of control | dose: 200.0 mg/kg/injection, schedule: Q04DX002 (ip), vehicle: carboxymethylcellulose (CMC) 94 % of control

Nc1nc2c(c(-c3ccc(Cl)cc3)n1)CN(CCC(=O)O)C2=O
inactive: dose: 100.0 mg/kg/injection, schedule: Q01DX001 (ip), vehicle: saline 100 % of control | [6] 98 % of control | dose: 200.0 mg/kg/injection, schedule: Q01DX001 (ip), vehicle: saline 105 % of control | [10] 98 % of control | dose: 400.0 mg/kg/injection, schedule: Q01DX001 (ip), vehicle: saline 102 % of control | [7] 98 % of control

CCOC(CCl)(OCC)OCC
inactive: [1] 97 % of control | [3] 90 % of control

CC1(c2ccc(F)cc2)OC(=O)c2c1ccc1ccccc21 (stereo unspecified)
inactive: [11] 101 % of control | [12] 94 % of control | [13] 101 % of control

CC(O)CN1c2ccccc2Sc2ccc(Cl)cc21 (stereo unspecified)
inactive: [9] 97 % of control | [14] 92 % of control | [15] 95 % of control

Cc1cc([N+](=O)[O-])c(N/N=C/c2c[nH]c3ccccc23)c([N+](=O)[O-])c1
inactive: dose: 100.0 mg/kg/injection, schedule: Q01DX009 (ip), vehicle: saline 102 % of control | dose: 200.0 mg/kg/injection, schedule: Q01DX009 (ip), vehicle: saline 93 % of control | dose: 400.0 mg/kg/injection, schedule: Q01DX009 (ip), vehicle: saline 98 % of control

Cc1nn(C)c2ccc([N+](=O)[O-])cc12
inactive: [16] 91 % of control | [17] 102 % of control | [18] 97 % of control | [19] 96 % of control | [20] 98 % of control

Cc1sc2c(c1-c1ccccc1)C(=O)CCCN2
inactive: [2] 94 % of control | [4] 100 % of control | [5] 100 % of control

NNC(=O)Cc1ccccc1
inactive: [6] 94 % of control | [10] 89 % of control

CCCCCCCCCCCC(N)=O
inactive: dose: 100.0 mg/kg/injection, schedule: Q01DX001 (ip), vehicle: other 104 % of control | [11] 104 % of control | dose: 200.0 mg/kg/injection, schedule: Q01DX001 (ip), vehicle: other 93 % of control | [12] 110 % of control | dose: 400.0 mg/kg/injection, schedule: Q01DX001 (ip), vehicle: other 96 % of control | [13] 93 % of control

O=C(Oc1c(Cl)cc(S(=O)(=O)F)cc1Cl)c1ccc([N+](=O)[O-])cc1
inactive: dose: 100.0 mg/kg/injection, schedule: Q04DX002 (ip), vehicle: gum acacia 101 % of control | dose: 200.0 mg/kg/injection, schedule: Q04DX002 (ip), vehicle: gum acacia 99 % of control | dose: 400.0 mg/kg/injection, schedule: Q04DX002 (ip), vehicle: gum acacia 99 % of control

Cc1ncc2c(=O)[nH]ccn12
inactive: dose: 100.0 mg/kg/injection, schedule: Q04DX003 (ip), vehicle: water 103 % of control | dose: 200.0 mg/kg/injection, schedule: Q04DX003 (ip), vehicle: water 103 % of control | dose: 400.0 mg/kg/injection, schedule: Q04DX003 (ip), vehicle: water 103 % of control

CCOc1ccc(O)cc1
inactive: dose: 100.0 mg/kg/injection, schedule: Q04DX002 (ip), vehicle: saline + alcohol 109 % of control | dose: 200.0 mg/kg/injection, schedule: Q04DX002 (ip), vehicle: saline + alcohol 100 % of control

Cc1cc(NCCN(C(C)C)C(C)C)nc(Nc2nc3ccc(Cl)cc3[nH]2)n1
inactive: dose: 12.5 mg/kg/injection, schedule: Q01DX009 (ip), vehicle: saline with Tween-80 98 % of control | dose: 50.0 mg/kg/injection, schedule: Q01DX009 (ip), vehicle: saline with Tween-80 91 % of control

CC(C)N(C(=O)Nc1cc([N+](=O)[O-])ccc1F)c1ccccc1
inactive: [21] 96 % of control | [18] 100 % of control | [20] 96 % of control

Clc1ccc(N=Nc2ccccc2)cc1
inactive: [16] 98 % of control | [21] 95 % of control | [17] 91 % of control | [18] 101 % of control | [19] 96 % of control | [20] 105 % of control

COS(=O)(=O)CCC[N+](C)(C)C
inactive: dose: 50.0 mg/kg/injection, schedule: Q01DX001 (ip), vehicle: saline 93 % of control

CCCN(CCC#N)C(=S)Nc1ccc(C)c(C)c1
inactive: [11] 94 % of control | [12] 97 % of control | [13] 94 % of control

C=C1C[C@]23C[C@H](O)[C@]4(O)[C@@]5(C)C[C@H](O)C[C@]46C(C2[C@@H]1[C@@H](OC(=O)/C(C)=C/C)[C@@H](OC(=O)/C(C)=C/C)[C@H]36)N(C)C5 (stereo partly specified)
inactive: [8] 95 % of control | [9] 106 % of control | [14] 106 % of control | [15] 114 % of control
